Reference: patent publication US20140235578A1, “METHODS FOR TREATING NEOPLASIA AND FOR IDENTIFYING COMPOSITIONS USEFUL IN SUCH THERAPY” (priority 2007, published 2014)
Where a SMILES comes first, the peptide text is derived from it. The star is where a group is joined. Cbz = O=C(OCc1ccccc1)*

Columns and labels:
H9C2 cardiomyocytes = type: cell-based
Method: Vitamin C and NAC were added 30 min prior to doxorubicin. Cell lysates were then analyzed by Western blotting using anti-γ-H2AX or anti-α-tubulin antibody. […] Cell lysates were then analyzed by Western blotting (upper panel) using anti-γ-H2AX or anti-α-tubulin antibody. Quantification of γ-H2AX signals is shown in the lower panel. C, H9C2 cells were treated with 0.1% DMSO (labeled DMSO), bortezomib (1 μM) or MG132 (4 μM) for 30 min, followed by co-treatment with either 0.1% DMSO (labeled control) or 0.5 μM doxorubicin (labeled Doxo) for 1.5 hrs. Neutral comet assay was then performed as described in Materials and Methods. The average comet tail moments were plotted as histograms (mean±SEM). *p-value<0.001, t-test.
The amount of Top2 cleavage complexes was measured by a band depletion assay as described in Materials and Methods. Cells were lysed either immediately or after reversal of the Top2 cleavage complexes (labeled R+250). Cell lysates were analyzed by Western blotting using anti-Top2α/Top2β or anti-α-tubulin antibody. […] Cells were then lysed and protein levels of Top2α, and Top2β isozymes were determined by Western blotting. […] Cell lysates were immunoblotted using anti-Top2β antibody. D, H9C2 cells were treated with ICRF187 (100 μM) for 4 hrs, followed by treatment with doxorubicin (Doxo, 0, 0.5 and 1 μM) for 1.5 hrs. […]

SV40-transformed MEFs = assay: Plasmid integration assay; type: cell-based, mouse; conditions: 2 μM, added 30 min prior to and during transfection
Method: Transformed top2β^+/Δ2 and top2β^Δ2/Δ2 MEFs were plated in six-well plates (4×10^5 cellsper well) one day prior to transfection. Transfection was performed with EcoRI-linearized pUCSV-BSD plasmid (containing the blasticidin resistance gene) using the Cellfectin (Invitrogen) transfection reagent (0.1 μg DNA+2 μl Cellfectin). VP-16 was added at the time of transfection. After 6 hr, cells were washed and trypsinized. A small aliquot was removed, reseeded into fresh medium and grown without the selection agent for survival determination. The rest of the cells were reseeded into fresh medium in a 10 cm plate. After 24 hr, the selection agent blasticidin (3 μg/ml) was added. Colonies were stained with methylene blue and counted after 10 days. Where indicated, the proteasome inhibitor MG132 (2 μM) was added 30 min prior to and during transfection. Integration frequency was determined as the ratio of the number of blasticidin-resistant colonies and the number of surviving cells.

MEFs = assay: Neutral comet assay of VP-16-induced DSBs; type: cell-based, mouse; conditions: co-treatment, data not shown
Method: Both wild type and Top2β knockout mouse embryonic fibroblasts (MEFs) were treated with either DMSO (solvent control) or VP-16 (250 μM) for 90 min, followed by incubated in drug-free media for 30 min. Neutral comet assay was then performed. Tail moment (average from 100 cells) was determined for each treatment.

Top2α = biological target: T1, Top2α (Rattus norvegicus, UniProt P41516); assay: Top2α protein level by Western blotting in H9C2 cells; type: cell-based; conditions: 100 μM, 0-6 hrs
T1 construct: endogenous in cells; host or cells: H9C2 cardiomyocytes
T1 sequence (P41516 whole entry): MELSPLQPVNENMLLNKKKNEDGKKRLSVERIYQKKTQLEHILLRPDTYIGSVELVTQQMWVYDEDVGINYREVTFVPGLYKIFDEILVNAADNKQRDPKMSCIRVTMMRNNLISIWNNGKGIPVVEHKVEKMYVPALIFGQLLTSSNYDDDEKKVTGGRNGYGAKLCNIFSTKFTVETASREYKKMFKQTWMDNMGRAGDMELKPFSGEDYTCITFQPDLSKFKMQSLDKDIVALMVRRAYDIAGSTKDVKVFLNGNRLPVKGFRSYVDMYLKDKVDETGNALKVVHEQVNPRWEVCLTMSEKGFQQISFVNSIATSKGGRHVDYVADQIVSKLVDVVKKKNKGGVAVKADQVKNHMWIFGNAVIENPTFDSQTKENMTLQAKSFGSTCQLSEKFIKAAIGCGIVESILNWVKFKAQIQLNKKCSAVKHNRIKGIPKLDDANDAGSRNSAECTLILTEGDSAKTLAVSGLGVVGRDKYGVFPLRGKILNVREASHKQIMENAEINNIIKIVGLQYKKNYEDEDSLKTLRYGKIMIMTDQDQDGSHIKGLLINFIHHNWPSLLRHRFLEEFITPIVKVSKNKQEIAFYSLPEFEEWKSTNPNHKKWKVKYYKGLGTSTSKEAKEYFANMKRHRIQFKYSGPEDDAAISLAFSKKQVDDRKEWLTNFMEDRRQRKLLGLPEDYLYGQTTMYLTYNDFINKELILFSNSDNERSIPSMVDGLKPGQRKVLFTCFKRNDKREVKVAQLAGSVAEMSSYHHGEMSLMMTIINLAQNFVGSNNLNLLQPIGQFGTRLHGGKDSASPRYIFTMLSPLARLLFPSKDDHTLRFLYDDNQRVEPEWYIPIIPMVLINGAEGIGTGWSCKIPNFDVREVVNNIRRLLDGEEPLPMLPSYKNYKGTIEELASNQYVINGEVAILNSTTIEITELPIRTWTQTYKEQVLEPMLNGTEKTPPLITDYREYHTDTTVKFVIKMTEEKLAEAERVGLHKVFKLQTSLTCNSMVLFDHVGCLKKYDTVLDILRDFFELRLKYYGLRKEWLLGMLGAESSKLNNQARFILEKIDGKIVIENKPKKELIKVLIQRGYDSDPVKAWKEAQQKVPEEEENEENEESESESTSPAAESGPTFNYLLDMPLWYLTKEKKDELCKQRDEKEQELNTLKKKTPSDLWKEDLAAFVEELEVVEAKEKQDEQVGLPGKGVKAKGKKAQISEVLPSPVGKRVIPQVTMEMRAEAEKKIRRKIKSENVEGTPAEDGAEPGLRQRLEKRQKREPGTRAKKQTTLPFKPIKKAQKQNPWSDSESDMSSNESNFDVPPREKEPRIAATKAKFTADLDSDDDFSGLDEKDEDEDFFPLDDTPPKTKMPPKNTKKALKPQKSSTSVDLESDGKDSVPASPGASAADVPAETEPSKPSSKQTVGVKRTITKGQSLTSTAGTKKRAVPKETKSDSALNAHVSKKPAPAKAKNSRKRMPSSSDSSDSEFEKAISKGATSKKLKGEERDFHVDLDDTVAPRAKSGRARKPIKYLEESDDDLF
Method: (§1) The amount of Top2 cleavage complexes was measured by a band depletion assay as described in Materials and Methods. Cells were lysed either immediately or after reversal of the Top2 cleavage complexes (labeled R+250). Cell lysates were analyzed by Western blotting using anti-Top2α/Top2β or anti-α-tubulin antibody. […] Cells were then lysed and protein levels of Top2α, and Top2β isozymes were determined by Western blotting. […] Cell lysates were immunoblotted using anti-Top2β antibody. D, H9C2 cells were treated with ICRF187 (100 μM) for 4 hrs, followed by treatment with doxorubicin (Doxo, 0, 0.5 and 1 μM) for 1.5 hrs. Neutral comet assay was then performed as described in Materials and Methods. The average comet tail moments were plotted as histograms (mean±SEM). * p-value<0.001, t-test.

Top2β = Top2β protein level by Western blotting in H9C2 cells; type: cell-based; conditions: 100 μM, 0-6 hrs
Method: as §1

Row | level of the Top2α isozyme (Top2α) | Structure (SMILES) | effect on doxorubicin-induced comet tail moment (H9C2 cardiomyocytes) | effect on VP-16-stimulated plasmid integration (SV40-transformed MEFs) | effect on VP-16-induced DSBs (MEFs) | protein level of Top2β (Top2β)
1 |  | CC(C)C[C@@H](C=O)NC(=O)[C@H](CC(C)C)NC(=O)[C@H](CC(C)C)NC(=O)OCc1ccccc1 [MG132, N-[(Phenylmethoxy)carbonyl]-L-leucyl-N-[(1S)-1-formyl-3-methylbutyl]-L-leucinamide] (Cbz-Leu-Leu-Leu-aldehyde) | significantly reduced | blocks | abolish | 
2 | no significant effect | C[C@@H](CN1CC(=O)NC(=O)C1)N1CC(=O)NC(=O)C1 [dexrazoxane] |  |  |  | time-dependent disappearance
